Data as given in patent publication US9579322B2, “Methods for treating neurologic disorders” (EIP Pharma, LLC, priority 2014, dated 2017).

Columns and labels:
[1] = tested on: sensory-motor recovery after tMCAO; test: Transient MCAO in rats, functional recovery; format: in vivo, Sprague-Dawley rats; conditions: for change in cylinder test performance from day 7 to day 35: relative to vehicle; for functional recovery, 7-point neuroscore / functional recovery, 20-point neuroscore / functional recovery, limb placing: day 3 to day 42, versus vehicle
Procedure: The objective of this study was to investigate whether chronic twice-a-day treatment with VX-745 started at 48 hours post-occlusion provides sensory-motor recovery and neuroprotection in rats subjected to 120 min middle cerebral artery occlusion (tMCAO) at day 0. Seven and 20-point Neuroscore tests were performed to study sensory-motor deficits and general condition on days 1, 3, 7, 14, 21, 28, 35 and 42 post-ischemia. Cylinder test was performed on days 7, 14, 21 and 35 post-ischemia and limb-placing tests on days 1, 3, 7, 14, 21, 28, 35 and 42. Infarct volume was evaluated by T2-MRI at 24 h post-ischemia and rats were allocated to treatment groups based on the lesion data on day 2 and treatment was started after MRI on day 2. Methods—Male Sprague-Dawley rats were subjected to twice-a-day chronic treatment with VX-745 starting at 48 h after 120 min tMCAO. Lesion size was measured at 24 h with MRI and rats were allocated to dosing groups on day 2 (tMCAO performed on day 0) based on lesion size and limb placing results. Rats were treated with 2 different doses and underwent sensorimotor behavioral test throughout the experiment. Seven and 20-point Neuroscore and limb placing tests were performed to study sensory-motor deficits and general condition before occlusion and on days 1, 3, 7, 14, 21, 28, 35 and 42 post-ischemia. Cylinder test was performed before occlusion and on days 7, 14, 21 and 35 post-ischemia. Animals. Altogether 45 adult male Sprague Dawley rats, purchased from Charles River Laboratories (Sulzfeld, Germany), and weighing 250-300 g were used for the experiment. Animals were housed at a standard temperature (22±1° C.) and in a light-controlled environment (lights on from 7 am to 8 pm) with ad libitum access to food and water. • Group A: 15 tMCAO animals treated twice-a-day with vehicle from day 2 to 42 (5 ml/kg, p.o) • Group B: 15 tMCAO animals treated twice-a-day with VX-745 from day 2 to 42 (1.5 mg/kg, p.o). • Group C: 15 tMCAO animals treated twice-a-day with VX-745 from day 2 to 42 (4.5 mg/kg, p.o). Transient MCAO Transient focal cerebral ischemia was produced by MCA occlusion at Day 0 in male Sprague-Dawley rats according to Koizumi with modifications (Koizumi et al. Jpn. J. Stroke 8:1-8, 1986). The rats were anesthetized with 5% isoflurane (in 70% N2O and 30% O2; flow 300 ml/min). During the operation the concentration of anesthetic was reduced to 1.0-2.0%. The rectal temperature was maintained at 37.0±1.0° C. with a homeothermic blanket system. After midline skin incision, the right common carotid artery (CCA) was exposed, and the external carotid artery (ECA) was ligated distal from the carotid bifurcation. A 0.22-mm diameter monofilament nylon thread, with blunted tip, was inserted 22-23 mm into the internal carotid artery (ICA) up to the origin of MCA. After the monofilament insertion, CCA was occluded for 2 hours with a suture. After 120 min of ischemia, the MCA blood flow was restored by removal of the filament and the suture. The wound was closed, disinfected, and the animals were allowed to recover from anesthesia. The rats were carefully monitored for possible post-surgical complications after the tMCAO. The rats were fed with standard laboratory diet suspended in tap water after the tMCAO. To prevent dehydration all rats were given an i.p. injection of saline (4 mL per rat) once or twice-a-day as needed. Drug Delivery. VX-745 or vehicle was administered p.o. (5 ml/kg) starting after MRI at 48 h post-ischemia (i.e. Day 2) and continued twice-a day (morning and afternoon) until endpoint day 42. MRI acquisitions in vivo for all rats were performed at 24 h after tMCAO (i.e. […] Rats were allocated to treatment groups on day 2 based on the lesion data and treatment was started on day 2. A 20-point Neuroscore test was used to assess post-ischemic motor and behavioral deficits. The neurological test was conducted by a blinded investigator at pre-stroke (baseline) and on days 1, 3, 7, 14, 21, 28, 35 and 42 post-ischemia. […]

[2] = tested on: knee degeneration; conditions: rats, 50 mg/kg, compared to control animals; cited from earlier work
[3] = tested on: cytokine (IL-1β or TNFα) production in whole blood; conditions: inhibition of cytokine production (anti-inflammatory activity); cited from earlier work

VX-745
change in cylinder test performance from day 7 to day 35 ([1]; 1.5 mg/kg p.o. twice-a-day): a trend (p=0.088, two-sided t-test) towards increased improvement | functional recovery, 7-point neuroscore ([1]; 1.5 mg/kg): not further improve functional recovery | functional recovery, 20-point neuroscore ([1]; 1.5 mg/kg): not further improve functional recovery | functional recovery, limb placing ([1]; 1.5 mg/kg): not further improve functional recovery | change in cylinder test performance from day 7 to day 35 ([1]; 4.5 mg/kg p.o. twice-a-day): not evident | functional recovery, 7-point neuroscore ([1]; 4.5 mg/kg): not further improve functional recovery | functional recovery, 20-point neuroscore ([1]; 4.5 mg/kg): not further improve functional recovery | functional recovery, limb placing ([1]; 4.5 mg/kg): not further improve functional recovery | functional recovery, 1.5 mg/kg group compared with 4.5 mg/kg group ([1]; all measures, change analysis): consistently better | inhibition of knee degeneration [2]: statistically significant inhibition of knee degeneration | whole blood IC50 [3]: 0.065 to 0.08 µg/mL
